The values that follow come from patent publication US20220062268A1, “PHARMACEUTICAL COMPOSITION FOR THE TREATMENT OF PARKINSON'S DISEASE” (Teva Pharmaceuticals International GmbH, priority 2014, published 2022).

Entries after “also recorded” stand apart in the source; their conditions may differ. Where two headings read alike, the source gives them in different places.

Data set [1] has as its system MPTP monkey model of Parkinson's disease. The experiment in a line: MPTP monkey model of Parkinson's disease: tremor and Good ON. It is filed as in vivo, Macaca fascicularis. The following applies: MPTP macaques; DP-102 versus same dose of L-DOPA; tremor score summed over 3 hours post dose; FIG. 1. How it is done: Macaques (Macaca fascicularis) were rendered parkinsonian by repeated daily injections of MPTP hydrochloride (0.2 mg/kg, i.v.) until parkinsonian signs appeared. The degree of parkinsonism was assessed using a validated parkinsonian macaque clinical scale which rates the following symptoms of parkinsonian disability: tremor (0-3), variations in the general level of activity (0-3), body posture (flexion of spine; 0-3), vocalization (0-2), freezing (0-2), frequency of arm movements (reaching for food, 0-3 for each upper limb), and rigidity (0-3 for each upper limb).
The maximum parkinsonian disability score was 25. MPTP administration was stopped when a score of 6 was reached on the above scale (usually day 13-17). The macaques were left untreated, for a minimum of 6 weeks, until their parkinsonism became stable.
This study assessed the test item in a within-subject design with an intra-individually escalating dosage regimen.
Eight animals were randomly assigned to one of two treatment sequence groups (1: AB, 2: BA). […]
Tremor was assessed for 3 hours post L-DOPA administration for 10 minutes every 30 minutes, by post hoc analysis of video recordings by a trained assessor blinded to the study treatments. […]
The anti-parkinsonian action was evaluated based upon the “ON” state of the animals. […]

In the next data set the test system is striatal dopamine. To be noted: compared to L-DOPA, cited from earlier work.
In another data set the test system is Parkinson models. The following applies: cited from earlier work.
The conditions of data set [2]: neutral pH; cited from earlier work.
A further data set has as its system late Parkinson's disease. To be noted: cited from earlier work.

Take `[2H]C([2H])(c1ccc(O)c(O)c1)[C@]([2H])(N)C(=O)O` [DP-102, L-2-Amino-2,3,3-trideutero-3-(3,4-dihydroxyphenyl) propionic acid]: in data set [1], the “tremor in relation to Good ON” value was “less tremor at more Good ON”. In addition, the striatal dopamine levels entry in the data set on striatal dopamine (listed as α,β,β-D3-L-DOPA) was “higher longer-lasting striatal dopamine levels than L-DOPA; also recorded: increase and prolong the output of striatal dopamine significantly more than L-DOPA”. Also, the “equi-effective dose compared to L-DOPA” value in the data set on Parkinson models (in vivo) was “about 60%”. For the same molecule, the motor activity result in the data set on Parkinson models (several Parkinson models, compared to L-DOPA) is “improved motor activity compared to L-DOPA”.

On to `N[C@@H](Cc1ccc(O)c(O)c1)C(=O)O` [L-DOPA, (2S)-2-amino-3-(3,4-dihydroxyphenyl)propanoic acid, reference compound], for which the “tremor in relation to Good ON” value in data set [1] is listed as “higher or observed at lower Good ON levels”. Besides, in data set [2], the solubility entry is recorded as “poorly dissolved at neutral pH”.

Consider `CN1CCc2cccc3c2[C@H]1Cc1ccc(O)c(O)c1-3` [apomorphine], for which, in the data set with late Parkinson's disease (daily dose of infused apomorphine 72.00±21.38 mg, reduced from 989.4±420.1 mg/day (Ruiz et al.)), the “dose of oral L-DOPA under infused apomorphine” value is 663.8 ± 403.2 mg/day. In the data set on late Parkinson's disease (mean daily apomorphine dose of 75.2 mg (Katzenschlager et al.)), the “reduction of L-DOPA” value is 55%.

As to `[2H][C@@H](c1ccc(O)c(O)c1)[C@]([2H])(N)C(=O)O` [α,β-D2-L-DOPA, S/S-2-amino-2,3-dideutero-3-(3,4-dihydroxyphenyl) propionic acid], the striatal dopamine levels entry with striatal dopamine is “increase and prolong the output of striatal dopamine significantly more than L-DOPA; also recorded: highest striatal dopamine concentrations”.
